Test results reported in PubChem BioAssay (NCI).
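Method: 48-hour compound exposure of cells in 96-well plates, five concentrations, linear interpolation of endpoints. The concentration for 50% growth inhibition is given as GI50. TGI is the concentration that stops growth completely.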

Columns and labels:
Assay in all cases: DTP human tumour cell line panel, 48 h
786-0 renal = tested on: 786-0 renal
A498 renal = tested on: A498 renal
A549 NSCLC = tested on: A549 NSCLC
ACHN renal = tested on: ACHN renal
CAKI-1 renal = tested on: CAKI-1 renal
CCRF-CEM leukemia = tested on: CCRF-CEM leukemia
COLO 205 colon = tested on: COLO 205 colon
DLD-1 colon = tested on: DLD-1 colon
DMS 114 small cell lung = tested on: DMS 114 small cell lung
DMS 273 small cell lung = tested on: DMS 273 small cell lung
EKVX NSCLC = tested on: EKVX NSCLC
HCC-2998 colon = tested on: HCC-2998 colon
HCT-116 colon = tested on: HCT-116 colon
HCT-15 colon = tested on: HCT-15 colon
HL-60(TB) leukemia = tested on: HL-60(TB) leukemia
HOP-18 NSCLC = tested on: HOP-18 NSCLC
HOP-62 NSCLC = tested on: HOP-62 NSCLC
HOP-92 NSCLC = tested on: HOP-92 NSCLC
HT29 colon = tested on: HT29 colon
IGROV1 ovarian = tested on: IGROV1 ovarian
K-562 leukemia = tested on: K-562 leukemia
KM12 colon = tested on: KM12 colon
KM20L2 colon = tested on: KM20L2 colon
LOX IMVI melanoma = tested on: LOX IMVI melanoma
LXFL 529 NSCLC = tested on: LXFL 529 NSCLC
M14 melanoma = tested on: M14 melanoma
M19-MEL melanoma = tested on: M19-MEL melanoma
MALME-3M melanoma = tested on: MALME-3M melanoma
MOLT-4 leukemia = tested on: MOLT-4 leukemia
NCI-H226 lung = tested on: NCI-H226 lung
NCI-H23 lung = tested on: NCI-H23 lung
NCI-H460 lung = tested on: NCI-H460 lung
NCI-H522 lung = tested on: NCI-H522 lung
OVCAR-3 ovarian = tested on: OVCAR-3 ovarian
OVCAR-4 ovarian = tested on: OVCAR-4 ovarian
OVCAR-5 ovarian = tested on: OVCAR-5 ovarian
OVCAR-8 ovarian = tested on: OVCAR-8 ovarian
RPMI-8226 leukemia = tested on: RPMI-8226 leukemia
SF-268 CNS = tested on: SF-268 CNS
SF-295 CNS = tested on: SF-295 CNS
SF-539 CNS = tested on: SF-539 CNS
SK-MEL-2 melanoma = tested on: SK-MEL-2 melanoma
SK-MEL-28 melanoma = tested on: SK-MEL-28 melanoma
SK-MEL-5 melanoma = tested on: SK-MEL-5 melanoma
SK-OV-3 ovarian = tested on: SK-OV-3 ovarian
SN12C renal = tested on: SN12C renal
SNB-19 CNS = tested on: SNB-19 CNS
SNB-75 CNS = tested on: SNB-75 CNS
SNB-78 CNS = tested on: SNB-78 CNS
SW-620 colon = tested on: SW-620 colon
TK-10 renal = tested on: TK-10 renal
U251 CNS = tested on: U251 CNS
UACC-257 melanoma = tested on: UACC-257 melanoma
UACC-62 melanoma = tested on: UACC-62 melanoma
UO-31 renal = tested on: UO-31 renal
XF 498 CNS = tested on: XF 498 CNS
RXF 393 renal = tested on: RXF 393 renal
SR leukemia = tested on: SR leukemia

Compound: COc1ccc(C23c4ccc(OC)cc4CC2(c2ccc([N+](=O)[O-])cc2)Cc2cc(OC)ccc23)cc1 (stereo not drawn)
- TGI (786-0 renal): > 100 µM
- TGI (A498 renal): > 100 µM
- TGI (A549 NSCLC): > 100 µM
- TGI (ACHN renal): > 100 µM
- TGI (CAKI-1 renal): > 100 µM
- TGI (CCRF-CEM leukemia): > 100 µM
- TGI (COLO 205 colon): > 52.1 µM
- TGI (DLD-1 colon): > 100 µM
- TGI (DMS 114 small cell lung): > 100 µM
- TGI (DMS 273 small cell lung): > 100 µM
- TGI (EKVX NSCLC): > 37.9 µM
- TGI (HCC-2998 colon): > 73 µM
- TGI (HCT-116 colon): > 100 µM
- TGI (HCT-15 colon): > 100 µM
- TGI (HL-60(TB) leukemia): > 100 µM
- TGI (HOP-18 NSCLC): 30.8 µM
- TGI (HOP-62 NSCLC): > 88 µM
- TGI (HOP-92 NSCLC): > 44.6 µM
- TGI (HT29 colon): > 100 µM
- TGI (IGROV1 ovarian): > 81.6 µM
- TGI (K-562 leukemia): > 100 µM
- TGI (KM12 colon): > 100 µM
- TGI (KM20L2 colon): > 44.9 µM
- TGI (LOX IMVI melanoma): > 100 µM
- TGI (LXFL 529 NSCLC): > 100 µM
- TGI (M14 melanoma): > 100 µM
- TGI (M19-MEL melanoma): > 88.2 µM
- TGI (MALME-3M melanoma): > 68.4 µM
- TGI (MOLT-4 leukemia): > 69.2 µM
- TGI (NCI-H226 lung): > 100 µM
- TGI (NCI-H23 lung): > 79.3 µM
- TGI (NCI-H460 lung): > 100 µM
- TGI (NCI-H522 lung): > 100 µM
- TGI (OVCAR-3 ovarian): > 100 µM
- TGI (OVCAR-4 ovarian): > 100 µM
- TGI (OVCAR-5 ovarian): > 85.4 µM
- TGI (OVCAR-8 ovarian): > 100 µM
- TGI (RPMI-8226 leukemia): > 100 µM
- TGI (SF-268 CNS): > 56.9 µM
- TGI (SF-295 CNS): > 100 µM
- TGI (SF-539 CNS): > 74.5 µM
- TGI (SK-MEL-2 melanoma): > 100 µM
- TGI (SK-MEL-28 melanoma): > 55.1 µM
- TGI (SK-MEL-5 melanoma): > 40.2 µM
- TGI (SK-OV-3 ovarian): > 100 µM
- TGI (SN12C renal): > 100 µM
- TGI (SNB-19 CNS): > 100 µM
- TGI (SNB-75 CNS): > 100 µM
- TGI (SNB-78 CNS): > 100 µM
- TGI (SW-620 colon): > 100 µM
- TGI (TK-10 renal): > 100 µM
- TGI (U251 CNS): > 100 µM
- TGI (UACC-257 melanoma): > 100 µM
- TGI (UACC-62 melanoma): > 41.7 µM
- TGI (UO-31 renal): > 77.4 µM
- TGI (XF 498 CNS): > 100 µM

Compound: O=C([O-])c1ccc2c(c1)-c1nc-2nc2[n-]c(nc3nc(nc4[n-]c(n1)c1ccc(C(=O)[O-])cc41)-c1ccc(C(=O)[O-])cc1-3)c1ccc(C(=O)[O-])cc21.[Gd+3].[K+]
- GI50 (786-0 renal): 18 µM
- TGI (786-0 renal): 40.9 µM
- GI50 (A498 renal): > 100 µM
- TGI (A498 renal): > 100 µM
- GI50 (A549 NSCLC): > 100 µM
- TGI (A549 NSCLC): > 100 µM
- GI50 (ACHN renal): > 100 µM
- TGI (ACHN renal): > 100 µM
- GI50 (CAKI-1 renal): > 100 µM
- TGI (CAKI-1 renal): > 100 µM
- GI50 (CCRF-CEM leukemia): > 36.5 µM
- TGI (CCRF-CEM leukemia): > 54.2 µM
- GI50 (COLO 205 colon): > 38.9 µM
- TGI (COLO 205 colon): > 55.2 µM
- GI50 (DLD-1 colon): > 53.2 µM
- TGI (DLD-1 colon): > 94 µM
- GI50 (DMS 273 small cell lung): 16.6 µM
- TGI (DMS 273 small cell lung): 36.1 µM
- GI50 (EKVX NSCLC): > 100 µM
- TGI (EKVX NSCLC): > 100 µM
- GI50 (HCC-2998 colon): > 100 µM
- TGI (HCC-2998 colon): > 100 µM
- GI50 (HCT-116 colon): > 40.1 µM
- TGI (HCT-116 colon): > 56.6 µM
- GI50 (HCT-15 colon): > 42.6 µM
- TGI (HCT-15 colon): > 64.3 µM
- GI50 (HL-60(TB) leukemia): > 38.5 µM
- TGI (HL-60(TB) leukemia): > 54.5 µM
- GI50 (HOP-18 NSCLC): > 100 µM
- TGI (HOP-18 NSCLC): > 100 µM
- GI50 (HOP-62 NSCLC): > 100 µM
- TGI (HOP-62 NSCLC): > 100 µM
- GI50 (HOP-92 NSCLC): > 100 µM
- TGI (HOP-92 NSCLC): > 100 µM
- GI50 (HT29 colon): > 83.1 µM
- TGI (HT29 colon): > 100 µM
- GI50 (IGROV1 ovarian): > 100 µM
- TGI (IGROV1 ovarian): > 100 µM
- GI50 (K-562 leukemia): > 38.9 µM
- TGI (K-562 leukemia): > 56.8 µM
- GI50 (KM12 colon): 19.1 µM
- TGI (KM12 colon): 34.6 µM
- GI50 (KM20L2 colon): > 58.8 µM
- TGI (KM20L2 colon): > 100 µM
- GI50 (LOX IMVI melanoma): 16.6 µM
- TGI (LOX IMVI melanoma): 45.7 µM
- GI50 (LXFL 529 NSCLC): > 57.1 µM
- TGI (LXFL 529 NSCLC): > 100 µM
- GI50 (M14 melanoma): > 65.1 µM
- TGI (M14 melanoma): > 100 µM
- GI50 (MALME-3M melanoma): > 100 µM
- TGI (MALME-3M melanoma): > 100 µM
- GI50 (MOLT-4 leukemia): > 49 µM
- TGI (MOLT-4 leukemia): > 100 µM
- GI50 (NCI-H226 lung): > 100 µM
- TGI (NCI-H226 lung): > 100 µM
- GI50 (NCI-H23 lung): > 100 µM
- TGI (NCI-H23 lung): > 100 µM
- GI50 (NCI-H460 lung): > 100 µM
- TGI (NCI-H460 lung): > 100 µM
- GI50 (NCI-H522 lung): > 100 µM
- TGI (NCI-H522 lung): > 100 µM
- GI50 (OVCAR-3 ovarian): > 100 µM
- TGI (OVCAR-3 ovarian): > 100 µM
- GI50 (OVCAR-4 ovarian): > 46.7 µM
- TGI (OVCAR-4 ovarian): > 71.7 µM
- GI50 (OVCAR-5 ovarian): > 100 µM
- TGI (OVCAR-5 ovarian): > 100 µM
- GI50 (OVCAR-8 ovarian): > 100 µM
- TGI (OVCAR-8 ovarian): > 100 µM
- GI50 (RPMI-8226 leukemia): > 47.2 µM
- TGI (RPMI-8226 leukemia): > 66 µM
- GI50 (RXF 393 renal): > 100 µM
- TGI (RXF 393 renal): > 100 µM
- GI50 (SF-268 CNS): > 64.1 µM
- TGI (SF-268 CNS): > 100 µM
- GI50 (SF-295 CNS): > 100 µM
- TGI (SF-295 CNS): > 100 µM
- GI50 (SF-539 CNS): > 46.5 µM
- TGI (SF-539 CNS): > 69 µM
- GI50 (SK-MEL-2 melanoma): > 100 µM
- TGI (SK-MEL-2 melanoma): > 100 µM
- GI50 (SK-MEL-28 melanoma): > 100 µM
- TGI (SK-MEL-28 melanoma): > 100 µM
- GI50 (SK-MEL-5 melanoma): > 100 µM
- TGI (SK-MEL-5 melanoma): > 100 µM
- GI50 (SK-OV-3 ovarian): > 100 µM
- TGI (SK-OV-3 ovarian): > 100 µM
- GI50 (SN12C renal): > 72.7 µM
- TGI (SN12C renal): > 100 µM
- GI50 (SNB-19 CNS): > 100 µM
- TGI (SNB-19 CNS): > 100 µM
- GI50 (SNB-75 CNS): > 100 µM
- TGI (SNB-75 CNS): > 100 µM
- GI50 (SNB-78 CNS): > 100 µM
- TGI (SNB-78 CNS): > 100 µM
- GI50 (SR leukemia): 30.6 µM
- TGI (SR leukemia): 53.9 µM
- GI50 (SW-620 colon): > 22.8 µM
- TGI (SW-620 colon): > 50.9 µM
- GI50 (TK-10 renal): > 100 µM
- TGI (TK-10 renal): > 100 µM
- GI50 (U251 CNS): > 57 µM
- TGI (U251 CNS): > 100 µM
- GI50 (UACC-257 melanoma): > 100 µM
- TGI (UACC-257 melanoma): > 100 µM
- GI50 (UACC-62 melanoma): 99.7 µM
- TGI (UACC-62 melanoma): > 100 µM
- GI50 (UO-31 renal): > 100 µM
- TGI (UO-31 renal): > 100 µM
- GI50 (XF 498 CNS): > 100 µM
- TGI (XF 498 CNS): > 100 µM
